BindingDB's records for doi:10.1021/jm00089a012 (Merck Sharp and Dohme Research Laboratories, 1992)

assay: In vitro for the binding affinity against sigma receptor by using [3H]DTG as radioligand in guinea pig cerebellum

Row | SMILES | IC50 [nM]
1 | CCCN1CCC2=C(CCc3ccccc32)C1 | 21
2 | CCCCN1CCC2c3ccccc3CCCC2C1 (centres undefined) | 2.1
3 | c1coc(CN2CC[C@H]3c4ccccc4CC[C@H]3C2)c1 | 6.6
4 | Clc1ccc(CN2CC[C@H]3c4ccccc4CC[C@H]3C2)cc1 | 4.7
5 | CCCCN1CCC2=C(Cc3ccccc32)C1 | 1.9
6 | c1ccc(CCCN2CC[C@H]3c4ccccc4CC[C@H]3C2)cc1 | 4.3
7 | c1ccc2c(c1)CC[C@H]1CN(C34C[C@H]5C[C@@H](C3)C[C@@H](C4)C5)CC[C@@H]21 | 2.3
8 | c1ccc2c(c1)CC[C@H]1CN(C3CCCCC3)CC[C@@H]21 | 0.251
9 | c1ccc(CCN2CC[C@H]3c4ccccc4CC[C@H]3C2)cc1 | 0.324
10 | c1csc(CN2CC[C@H]3c4ccccc4CC[C@H]3C2)c1 | 7.1
11 | c1ccc(CN2CC[C@H]3c4ccccc4CC[C@H]3C2)nc1 | 17
12 | c1ccc2c(c1)CC[C@H]1CN(CC3CC3)CC[C@@H]21 | 2.5
13 | CCCCN1CC[C@H]2c3cc(C)cc(C)c3CC[C@H]2C1 | 2
14 | c1ccc2c(c1)CC[C@H]1CN(Cc3ccc4ccccc4c3)CC[C@@H]21 | 81
15 | CCCCN1CC[C@@H]2c3ccccc3CC[C@H]2C1 | 3.1
16 | C=CCN1CC[C@H]2c3ccccc3CC[C@H]2C1 | 4.6
17 | CCCCN1CCC2c3ccccc3CC2C1 (centres undefined) | 11
18 | CCCN1CC[C@H]2c3ccccc3CC[C@H]2C1 | 2.6
19 | CN1CC[C@@H]2c3ccccc3CC[C@H]2C1 | 447
20 | CCCCN1CC[C@H]2c3ccccc3CC[C@H]2C1 | 6.3
21 | O=[N+]([O-])c1ccc(CN2CC[C@H]3c4ccccc4CC[C@H]3C2)cc1 | 8.7
22 | COc1ccc(CN2CC[C@H]3c4ccccc4CC[C@H]3C2)cc1 | 2
23 | CN1CC[C@H]2c3ccccc3CC[C@H]2C1 | 339
24 | c1ccc2c(c1)CC[C@H]1CN(C3[C@H]4C[C@@H]5C[C@@H](C[C@H]3C5)C4)CC[C@@H]21 (some centres undefined) | 2.2
